Measurements as given in patent US9005314B2, “Biphenyl benzyl ether marker compounds for liquid hydrocarbons and other fuels and oils” (Dow Global Technologies LLC, priority 2010, dated 2015).

Key:
[1] = Metal adsorptivity: marked xylene treated with metal shavings, GC analysis; type: physicochemical; settings: 100 mL marked xylene, 5 grams metal shavings, room temperature, 8 hours
Experimental: (§1) The stability and extractability of a representative marker was performed using xylene solutions containing between 100-1000 ppm maker and an equivalent amount of squalene internal reference standard using the following protocols:
(§2) Laundering Agents: • 1) 5% sulfuric acid • 2) 98% sulfuric acid • 3) 5% NaOH solution • 4) 50% NaOH solution To test for metal adsorptivity, 100 mL marked xylene tests solution is treated with 5 grams metal shavings at room temperature for 8 hours. GC analysis is again used to determine any loss of marker to the metal surface.

[2] = Laundering stability/extractability of marker in xylene solution, GC analysis versus un-laundered reference; type: physicochemical; settings: 8 hours; for Marker: 95:5 marked xylenes:agent, relative to control = 100; for Change %: versus control
Experimental: as §1
Mix 95 parts marked xylenes with 5 parts laundering agent in a 100 mL vial. Mix gently for 8 hours using a magnetic stir bar. Stop mixing and remove a xylene solution aliquot. Analyze by GC and compare marker response to reference (un-laundered) sample.
as §2

In the case of `CC(C)(C)c1ccc(OCc2ccc(-c3ccc(COc4ccc(C(C)(C)C)cc4)cc3)cc2)cc1` [Example 4, 4,4′-bis(4-t-butylphenoxymethyl)-1,1′-biphenyl], the melting point is reported as 218 °C.

In the case of `c1ccc(OCc2ccc(-c3ccc(COc4ccccc4)cc3)cc2)cc1` [4,4′-bis(phenoxymethyl)-1,1′-biphenyl], the melting point is reported as 176 °C, the Change % [1] is reported as “+4%” and the Marker [1] is reported as 104%. For the same molecule, the Marker ([2]; 5% H2SO4 laundering agent) was 85.51, the Change % ([2]; 5% H2SO4 laundering agent) was −14.49% and the Marker ([2]; 5% NaOH laundering agent) was 100.01. It also gave a Change % ([2]; 5% NaOH laundering agent) of 0.01%, a Marker ([2]; 50% NaOH laundering agent) of 101.85 and a Change % ([2]; 50% NaOH laundering agent) of 1.85%. It also gave a Marker ([2]; 98% H2SO4 laundering agent) of 0.00 and a Change % ([2]; 98% H2SO4 laundering agent) of −100.00%.

`Cc1ccc(OCc2ccc(-c3ccc(COc4ccc(C)cc4)cc3)cc2)cc1` [4,4′-bis(4-methylphenoxymethyl)-1,1′-biphenyl] gave a melting point of 206 °C.

In the case of `Cc1ccccc1OCc1ccc(-c2ccc(COc3ccccc3C)cc2)cc1` [4,4′-bis(2-methylphenoxymethyl)-1,1′-biphenyl], the melting point is reported as 209 °C.
